Our source for the IC50 values is patent US10005774B2, “Syk inhibitors” (Gilead Sciences, Inc., priority 2013, dated 2018).

The first test has as its target Syk (Homo sapiens, UniProt P43405). The test is described as follows: High Throughput Syk Biochemical Assay (KinEASE TR-FRET). The note with it: TABLE D, 20 μM ATP, 1 μM biotinylated peptide, 0.015 nM Syk, 30 min at room temperature, read-out: IC50. A digest of the protocol:
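Compounds in DMSO dilution series were tested against Syk, which phosphorylates an XL665-tagged peptide. The phosphoproduct was bound by Eu-labelled phosphotyrosine antibody in a two-step endpoint format.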
On to `C[C@@H](Oc1cc(-c2cccc(C(F)(F)F)n2)cc2ncn(C)c12)[C@H]1CNC(=O)C1` [(R)-4-((R)-1-((1-methyl-5-(6-(trifluoromethyl)pyridin-2-yl)-1H-benzo[d]imidazol-7-yl)oxy)ethyl)pyrrolidin-2-one], for which the concentration for half-maximal inhibition (IC50) came to 191 nM.

`COc1ccc(-c2cn3ncc(Cl)c3c(O[C@H](C)[C@H]3CNC(=O)C3)n2)cc1OC` [(R)-4-((R)-1-((3-chloro-6-(3,4-dimethoxyphenyl)pyrazolo[1,5-a]pyrazin-4-yl)oxy)ethyl)pyrrolidin-2-one]: the IC50 is 0.321 nM.

`COc1ccc(-c2cc(O[C@H](C)[C@H]3CNC(=O)C3)c3c(Cl)cnn3c2)cc1OC` [(R)-4-((R)-1-((3-chloro-6-(3,4-dimethoxyphenyl)pyrazolo[1,5-a]pyridin-4-yl)oxy)ethyl)pyrrolidin-2-one]: the IC50 came out at 1.07 nM.

For the molecule `C[C@@H](Oc1cc(-c2ccc(N3CCOCC3)cc2)cn2ncc(Cl)c12)[C@H]1CNC(=O)C1` [(R)-4-((R)-1-((3-chloro-6-(4-morpholinophenyl)pyrazolo[1,5-a]pyridin-4-yl)oxy)ethyl)pyrrolidin-2-one], the 50% inhibitory concentration (IC50) came to 0.31 nM.

The same test, now with this note: table 'ALL NEW COMPOUNDS IN 2014', 20 μM ATP, 1 μM biotinylated peptide, 0.015 nM Syk, 30 min at room temperature, read-out: Syk IC50.
As to `C[C@@H](Oc1cc(-c2ccncn2)cc2ncn(C3CC3)c12)[C@H]1CNC(=O)C1` [(R)-4-((R)-1-((1-cyclopropyl-5-(pyrimidin-4-yl)-1H-benzo[d]imidazol-7-yl)oxy)ethyl)pyrrolidin-2-one], the IC50 came to 24.6 nM.

For the molecule `C[C@@H](Oc1cc(-c2nccs2)cc2ncn(C3CC3)c12)[C@H]1CNC(=O)C1` [(R)-4-((R)-1-((1-cyclopropyl-5-(thiazol-2-yl)-1H-benzo[d]imidazol-7-yl)oxy)ethyl)pyrrolidin-2-one], the half-maximal inhibitory concentration (IC50) is 9.4 nM.

`C[C@@H](Oc1cc(-c2ccccc2)cc2ncn(C3CC3)c12)[C@H]1CNC(=O)C1` [(R)-4-((R)-1-((1-cyclopropyl-5-phenyl-1H-benzo[d]imidazol-7-yl)oxy)ethyl)pyrrolidin-2-one]: the IC50 worked out at 18 nM.

Consider `C[C@@H](Oc1nc(-c2ccc(N3CCN(C4COC4)CC3)cc2)cc2ncn(CCO)c12)[C@H]1CNC(=O)C1` [(R)-4-((R)-1-((3-(2-hydroxyethyl)-6-(4-(4-(oxetan-3-yl)piperazin-1-yl)phenyl)-3H-imidazo[4,5-c]pyridin-4-yl)oxy)ethyl)pyrrolidin-2-one], for which the IC50 was 135 nM.

For the molecule `C[C@@H](Oc1nc(-c2ccc(N3CCN(C4COC4)CC3)nc2)cc2ncn(C(F)F)c12)[C@H]1CNC(=O)C1` [(R)-4-((R)-1-((3-(difluoromethyl)-6-(6-(4-(oxetan-3-yl)piperazin-1-yl)pyridin-3-yl)-3H-imidazo[4,5-c]pyridin-4-yl)oxy)ethyl)pyrrolidin-2-one], the half-inhibitory concentration (IC50) was determined as 2.9 nM.

Take `Cc1nn(C)c2ccc(-c3cc4ncn(C5CC5)c4c(O[C@H](C)[C@H]4CNC(=O)C4)n3)cc12` [(R)-4-((R)-1-((3-cyclopropyl-6-(1,3-dimethyl-1H-indazol-5-yl)-3H-imidazo[4,5-c]pyridin-4-yl)oxy)ethyl)pyrrolidin-2-one]: the half-inhibitory concentration (IC50) was determined as 3.46 nM.

For the molecule `C[C@@H](Oc1nc(-c2ccc3c(cnn3CC(F)F)c2)cc2ncn(C3CC3)c12)[C@H]1CNC(=O)C1` [(R)-4-((R)-1-((3-cyclopropyl-6-(1-(2,2-difluoroethyl)-1H-indazol-5-yl)-3H-imidazo[4,5-c]pyridin-4-yl)oxy)ethyl)pyrrolidin-2-one], the concentration for half-maximal inhibition (IC50) stood at 1.81 nM.

As for `C[C@@H](Oc1nc(-c2ccc3c(c2)NCCN3C)cc2ncn(C3CC3)c12)[C@H]1CNC(=O)C1` [(R)-4-((R)-1-((3-cyclopropyl-6-(1-methyl-1,2,3,4-tetrahydroquinoxalin-6-yl)-3H-imidazo[4,5-c]pyridin-4-yl)oxy)ethyl)pyrrolidin-2-one], the half-inhibitory concentration (IC50) was found to be 2.25 nM.

In the case of `C[C@@H](Oc1nc(-c2ccc3c(c2)OCCO3)cc2ncn(C3CC3)c12)[C@H]1CNC(=O)C1` [(R)-4-((R)-1-((3-cyclopropyl-6-(2,3-dihydrobenzo[b][1,4]dioxin-6-yl)-3H-imidazo[4,5-c]pyridin-4-yl)oxy)ethyl)pyrrolidin-2-one], the concentration for half-maximal inhibition (IC50) was determined as 5.52 nM.
